29 compounds from patent publication US12065436B2, “Cardiac sarcomere inhibitors” (Cytokinetics, Inc., priority 2018, dated 2024) can be followed below.

Each structure is given as a SMILES string. A value given as a limit tells only on which side of the number the result lay.

The target of the assay is bovine cardiac myofibrils (full-length cardiac myosin ATPase in the native sarcomere) (Bos taurus (Bovine), UniProt Q9BE39). The experiment in a line: Skinned bovine cardiac myofibril ATPase assay (PK/LDH-coupled). It counts as biochemical. Particulars: Ca2+ activating to 75% of maximal rate; for CDMF75 IC15: concentration giving 15% inhibition; for IC50: read-out: CDMF75 IC50. An outline of the steps:
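Triton-skinned bovine left-ventricle myofibrils (1 mg/mL) in PM 12 buffer (12 mM PIPES, 2 mM MgCl2, pH 6.8) with 50 μM ATP, 0.6 mM EGTA and CaCl2 set for 50% or 75% activation. Steady-state ATPase inhibition followed by PK/LDH-coupled NADH oxidation at 340 nm.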

bovine cardiac myofibrils (full-length cardiac myosin ATPase in the native sarcomere), sequence (Q9BE39 whole entry): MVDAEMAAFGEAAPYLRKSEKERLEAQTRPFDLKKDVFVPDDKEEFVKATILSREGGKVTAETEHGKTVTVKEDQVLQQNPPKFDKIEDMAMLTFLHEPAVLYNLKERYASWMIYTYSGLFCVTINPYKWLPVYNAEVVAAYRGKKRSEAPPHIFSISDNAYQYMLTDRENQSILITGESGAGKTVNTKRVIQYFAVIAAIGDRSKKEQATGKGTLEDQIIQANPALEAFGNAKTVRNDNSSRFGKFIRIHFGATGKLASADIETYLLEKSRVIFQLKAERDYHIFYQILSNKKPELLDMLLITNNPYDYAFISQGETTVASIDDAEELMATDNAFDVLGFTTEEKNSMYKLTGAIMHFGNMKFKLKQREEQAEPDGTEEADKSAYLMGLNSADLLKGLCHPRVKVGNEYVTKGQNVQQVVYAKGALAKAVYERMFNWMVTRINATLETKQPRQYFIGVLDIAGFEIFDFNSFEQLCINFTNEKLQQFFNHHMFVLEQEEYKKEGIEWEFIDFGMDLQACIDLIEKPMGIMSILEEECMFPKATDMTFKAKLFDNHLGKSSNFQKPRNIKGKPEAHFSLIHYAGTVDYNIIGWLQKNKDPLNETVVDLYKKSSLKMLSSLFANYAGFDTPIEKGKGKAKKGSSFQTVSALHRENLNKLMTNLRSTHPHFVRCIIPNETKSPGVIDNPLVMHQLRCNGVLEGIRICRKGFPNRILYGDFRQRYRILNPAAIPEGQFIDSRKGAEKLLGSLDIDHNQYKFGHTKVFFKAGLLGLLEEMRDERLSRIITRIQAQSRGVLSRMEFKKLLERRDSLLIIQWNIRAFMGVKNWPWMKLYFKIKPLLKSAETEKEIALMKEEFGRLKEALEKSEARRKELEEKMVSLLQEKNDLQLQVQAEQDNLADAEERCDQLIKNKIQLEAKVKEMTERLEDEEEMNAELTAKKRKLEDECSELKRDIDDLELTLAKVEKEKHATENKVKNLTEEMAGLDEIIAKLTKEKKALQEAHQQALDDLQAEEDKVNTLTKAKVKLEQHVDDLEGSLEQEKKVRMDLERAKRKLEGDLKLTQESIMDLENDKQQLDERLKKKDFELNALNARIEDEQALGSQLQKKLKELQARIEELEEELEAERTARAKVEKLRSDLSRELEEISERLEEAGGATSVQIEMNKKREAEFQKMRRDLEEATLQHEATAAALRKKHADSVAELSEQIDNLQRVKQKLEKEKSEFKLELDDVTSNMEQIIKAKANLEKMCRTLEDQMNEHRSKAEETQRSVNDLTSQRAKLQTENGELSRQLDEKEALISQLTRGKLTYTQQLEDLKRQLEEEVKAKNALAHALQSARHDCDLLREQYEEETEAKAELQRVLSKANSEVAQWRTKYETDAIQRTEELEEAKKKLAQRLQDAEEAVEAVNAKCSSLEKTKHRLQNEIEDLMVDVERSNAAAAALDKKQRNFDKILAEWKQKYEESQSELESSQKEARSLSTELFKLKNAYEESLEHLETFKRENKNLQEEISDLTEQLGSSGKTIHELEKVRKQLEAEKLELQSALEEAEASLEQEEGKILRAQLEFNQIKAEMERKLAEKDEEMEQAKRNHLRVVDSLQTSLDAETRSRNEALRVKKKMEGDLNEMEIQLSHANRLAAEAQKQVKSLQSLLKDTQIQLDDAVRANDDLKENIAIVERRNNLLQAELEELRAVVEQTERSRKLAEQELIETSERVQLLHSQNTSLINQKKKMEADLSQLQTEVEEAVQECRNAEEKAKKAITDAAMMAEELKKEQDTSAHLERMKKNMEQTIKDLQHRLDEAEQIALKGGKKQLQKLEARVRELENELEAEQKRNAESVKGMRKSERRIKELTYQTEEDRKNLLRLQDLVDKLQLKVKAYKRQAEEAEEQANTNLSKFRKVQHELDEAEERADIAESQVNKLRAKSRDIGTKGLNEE
bovine cardiac myofibrils (full-length cardiac myosin ATPase in the native sarcomere), sequence (P85100 whole entry partner): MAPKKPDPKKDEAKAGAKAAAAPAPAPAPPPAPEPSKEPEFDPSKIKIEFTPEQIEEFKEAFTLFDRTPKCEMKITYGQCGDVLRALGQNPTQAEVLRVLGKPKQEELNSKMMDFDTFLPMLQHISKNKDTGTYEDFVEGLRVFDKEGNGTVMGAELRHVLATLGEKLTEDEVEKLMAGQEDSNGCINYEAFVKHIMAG
bovine cardiac myofibrils (full-length cardiac myosin ATPase in the native sarcomere), sequence (Q3SZE5 whole entry partner): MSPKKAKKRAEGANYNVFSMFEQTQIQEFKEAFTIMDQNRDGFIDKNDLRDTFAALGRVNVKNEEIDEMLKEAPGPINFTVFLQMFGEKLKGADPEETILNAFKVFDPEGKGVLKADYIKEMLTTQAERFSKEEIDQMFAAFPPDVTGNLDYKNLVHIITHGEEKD

By IC50 is commonly meant the concentration at which inhibition is half-maximal. Take `Cn1cc(C(=O)NC2CCc3cc(-c4noc(C(F)F)n4)ccc32)cn1` (stereo not shown) [Compound 7, N-(5-(5-(difluoromethyl)-1,2,4-oxadiazol-3-yl)-2,3-dihydro-1H-inden-1-yl)-1-methyl-1H-pyrazole-4-carboxamide]: the “CDMF75 IC15” value was 1.1 µM and the IC50 is 4.8 µM.

As to `Cc1nn(C)cc1C(=O)NC1CCc2cc(-c3noc(C4CC4)n3)ccc21` (stereo not shown) [Compound 73, N-(5-(5-cyclopropyl-1,2,4-oxadiazol-3-yl)-2,3-dihydro-1H-inden-1-yl)-1,3-dimethyl-1H-pyrazole-4-carboxamide], the “CDMF75 IC15” value amounted to 0.7 µM and the IC50 is 2.5 µM.

In the case of `Cc1nc(-c2ccc3c(c2)OCC3NC(=O)c2nnn(C)n2)no1` (stereo not shown) [Compound 199, 2-methyl-N-(6-(5-methyl-1,2,4-oxadiazol-3-yl)-2,3-dihydrobenzofuran-3-yl)-2H-tetrazole-5-carboxamide], the “CDMF75 IC15” value turned out to be 6.0 µM and the IC50 is 24.1 µM.

With `Cc1nc(-c2ccc3c(c2)OC[C@H]3NC(=O)c2nnn(C)n2)no1` [Compound 200, (S)-2-methyl-N-(6-(5-methyl-1,2,4-oxadiazol-3-yl)-2,3-dihydrobenzofuran-3-yl)-2H-tetrazole-5-carboxamide], the “CDMF75 IC15” value amounted to 2.6 µM and the IC50 is 11.3 µM.

As to `CCc1nc(-c2ccc3c(c2)CC[C@H]3NC(=O)c2cnn(CC(O)CO)c2)no1` (stereo partly drawn) [Compound 485, 1-(2,3-dihydroxypropyl)-N-((R)-5-(5-ethyl-1,2,4-oxadiazol-3-yl)-2,3-dihydro-1H-inden-1-yl)-1H-pyrazole-4-carboxamide], the “CDMF75 IC15” value is 1.2 µM and the IC50 was determined as 4.1 µM.

For `Cn1cnnc1C(=O)N[C@@H]1CCc2cc(-c3noc(C(F)F)n3)ccc21` [Compound 165, (R)-N-(5-(5-(difluoromethyl)-1,2,4-oxadiazol-3-yl)-2,3-dihydro-1H-inden-1-yl)-4-methyl-4H-1,2,4-triazole-3-carboxamide], the “CDMF75 IC15” value was determined as 4.6 µM and the IC50 turned out to be 23.5 µM.

On to `CC(C)(O)C(=O)N[C@@H]1CCc2cc(-c3noc(C(F)F)n3)ccc21` [Compound 290, (R)-N-(5-(5-(difluoromethyl)-1,2,4-oxadiazol-3-yl)-2,3-dihydro-1H-inden-1-yl)-2-hydroxy-2-methylpropanamide], for which the “CDMF75 IC15” value turned out to be 39.2 µM and the IC50 was > 39.2 µM.

Turning to `CCc1nc(-c2ccc3c(c2)OC[C@H]3NC(=O)N2CC[C@H](F)C2)no1` [Compound 742, (S)-N-((S)-6-(5-ethyl-1,2,4-oxadiazol-3-yl)-2,3-dihydrobenzofuran-3-yl)-3-fluoropyrrolidine-1-carboxamide], the “CDMF75 IC15” value was 3.4 µM and the IC50 is 16.6 µM.

Consider `[2H]C([2H])([2H])c1nc(-c2ccc3c(c2)CC[C@H]3NC(=O)c2nnn(C)n2)no1` [Compound 243, (R)-2-methyl-N-(5-(5-(methyl-d3)-1,2,4-oxadiazol-3-yl)-2,3-dihydro-1H-inden-1-yl)-2H-tetrazole-5-carboxamide], for which the “CDMF75 IC15” value came to 1.3 µM and the IC50 is 4.7 µM.

With `CCc1nc(-c2ccc3c(c2)CC[C@H]3NC(=O)c2cc(CO)ccc2C)no1` [Compound 651, (R)-N-(5-(5-ethyl-1,2,4-oxadiazol-3-yl)-2,3-dihydro-1H-inden-1-yl)-5-(hydroxymethyl)-2-methylbenzamide], the “CDMF75 IC15” value turned out to be 4.6 µM and the IC50 was 22.6 µM.

As to `Cc1nc(-c2ccc3c(c2)OC[C@H]3NC(=O)c2ocnc2C)no1` [Compound 454, (S)-4-methyl-N-(6-(5-methyl-1,2,4-oxadiazol-3-yl)-2,3-dihydrobenzofuran-3-yl)oxazole-5-carboxamide], the “CDMF75 IC15” value amounted to 0.5 µM and the IC50 was 1.8 µM.

Turning to `Cc1nc(-c2ccc3c(c2)CCC3NC(=O)c2ccnn2C)no1` (stereo not shown) [Compound 65, 1-methyl-N-(5-(5-methyl-1,2,4-oxadiazol-3-yl)-2,3-dihydro-1H-inden-1-yl)-1H-pyrazole-5-carboxamide], the “CDMF75 IC15” value was 0.8 µM and the half-maximal inhibitory concentration (IC50) turned out to be 3 µM.

Regarding `CCc1nc(-c2ccc3c(c2)CC[C@H]3NC(=O)C(F)F)no1` [Compound 436, (R)-N-(5-(5-ethyl-1,2,4-oxadiazol-3-yl)-2,3-dihydro-1H-inden-1-yl)-2,2-difluoroacetamide], the “CDMF75 IC15” value came to 0.6 µM and the IC50 was 2.1 µM.

Take `Cc1ncccc1C(=O)NC1CCc2cc(-c3noc(C(F)F)n3)ccc21` (stereo not shown) [Compound 39, N-(5-(5-(difluoromethyl)-1,2,4-oxadiazol-3-yl)-2,3-dihydro-1H-inden-1-yl)-2-methylnicotinamide]: the “CDMF75 IC15” value came out at 31.0 µM and the IC50 is > 39.2 µM.

As to `CCc1nc(-c2ccc3c(c2)CC[C@H]3NC(=O)c2cc(C)n(C)n2)no1` [Compound 580, (R)-N-(5-(5-ethyl-1,2,4-oxadiazol-3-yl)-2,3-dihydro-1H-inden-1-yl)-1,5-dimethyl-1H-pyrazole-3-carboxamide], the “CDMF75 IC15” value was 3.1 µM and the IC50 was 17.6 µM.

For `CCc1nc(-c2ccc3c(c2)CC[C@H]3NC(=O)c2ocnc2C(F)(F)F)no1` [Compound 639, (R)-N-(5-(5-ethyl-1,2,4-oxadiazol-3-yl)-2,3-dihydro-1H-inden-1-yl)-4-(trifluoromethyl)oxazole-5-carboxamide], the “CDMF75 IC15” value turned out to be 0.3 µM and the IC50 was found to be 1.1 µM.

On to `COCc1nc(-c2ccc3c(c2)CC[C@H]3NC(=O)c2oc(C)nc2C)no1` [Compound 180, (R)-N-(5-(5-(methoxymethyl)-1,2,4-oxadiazol-3-yl)-2,3-dihydro-1H-inden-1-yl)-2,4-dimethyloxazole-5-carboxamide], for which the “CDMF75 IC15” value came to 1.7 µM and the IC50 stood at 5.8 µM.

Regarding `COCc1nc(-c2ccc3c(c2)CC[C@H]3NC(=O)c2ccnc(C(F)F)c2)no1` [Compound 731, (R)-2-(difluoromethyl)-N-(5-(5-(methoxymethyl)-1,2,4-oxadiazol-3-yl)-2,3-dihydro-1H-inden-1-yl)isonicotinamide], the “CDMF75 IC15” value is 1.1 µM and the IC50 was determined as 5.3 µM.

Consider `Cn1nnc(C(=O)NC2COc3cc(-c4noc(C(F)F)n4)ccc32)n1` (stereo not shown) [Compound 197, N-(6-(5-(difluoromethyl)-1,2,4-oxadiazol-3-yl)-2,3-dihydrobenzofuran-3-yl)-2-methyl-2H-tetrazole-5-carboxamide], for which the “CDMF75 IC15” value came out at 3.2 µM and the IC50 stood at 12.4 µM.

On to `COCc1nc(-c2ccc3c(c2)CC[C@H]3NC(=O)c2c[nH]nc2C)no1` [Compound 397, (R)-N-(5-(5-(methoxymethyl)-1,2,4-oxadiazol-3-yl)-2,3-dihydro-1H-inden-1-yl)-3-methyl-1H-pyrazole-4-carboxamide], for which the “CDMF75 IC15” value came out at 0.9 µM and the IC50 is 3.2 µM.

For the compound `O=C(N[C@@H]1CCc2cc(-c3noc(C4CC4)n3)ccc21)OC1CCCC1` [Compound 328, cyclopentyl (R)-(5-(5-cyclopropyl-1,2,4-oxadiazol-3-yl)-2,3-dihydro-1H-inden-1-yl)carbamate], the “CDMF75 IC15” value was 1.2 µM and the half-inhibitory concentration (IC50) is > 39.2 µM.

`CCc1nc(-c2ccc3c(c2)CC[C@H]3NC(=O)c2cnn(C)c2C)no1` [Compound 570, (R)-N-(5-(5-ethyl-1,2,4-oxadiazol-3-yl)-2,3-dihydro-1H-inden-1-yl)-1,5-dimethyl-1H-pyrazole-4-carboxamide]: the “CDMF75 IC15” value came out at 0.4 µM and the IC50 turned out to be 1.4 µM.

With `CCc1nc(-c2ccc3c(c2)OC[C@H]3NC(=O)N2CC[C@@H](F)C2)no1` [Compound 743, (R)-N-((S)-6-(5-ethyl-1,2,4-oxadiazol-3-yl)-2,3-dihydrobenzofuran-3-yl)-3-fluoropyrrolidine-1-carboxamide], the “CDMF75 IC15” value worked out at 7.4 µM and the IC50 stood at 36.7 µM.

In the case of `CCc1nc(-c2ccc3c(c2)CC[C@H]3NC(=O)[C@@H]2CCC(=O)N2)no1` [Compound 337, (S)-N-((R)-5-(5-ethyl-1,2,4-oxadiazol-3-yl)-2,3-dihydro-1H-inden-1-yl)-5-oxopyrrolidine-2-carboxamide], the “CDMF75 IC15” value is 24.7 µM and the IC50 was > 39.2 µM.

For `C=Cc1cccc(C(=O)N[C@@H]2CCc3cc(-c4noc(CC)n4)ccc32)c1` [Compound 657, (R)-N-(5-(5-ethyl-1,2,4-oxadiazol-3-yl)-2,3-dihydro-1H-inden-1-yl)-3-vinylbenzamide], the “CDMF75 IC15” value is 0.3 µM and the IC50 was 0.7 µM.

`Cc1cncc(C(=O)NC2CCc3cc(-c4noc(C(F)F)n4)ccc32)n1` (stereo not shown) [Compound 23, N-(5-(5-(difluoromethyl)-1,2,4-oxadiazol-3-yl)-2,3-dihydro-1H-inden-1-yl)-6-methylpyrazine-2-carboxamide]: the “CDMF75 IC15” value turned out to be 5.8 µM and the IC50 is 31.4 µM.

`CCc1nc(-c2ccc3c(c2)CC[C@H]3NC(=O)c2ccnc(C(C)(C)O)c2)no1` [Compound 610, (R)-N-(5-(5-ethyl-1,2,4-oxadiazol-3-yl)-2,3-dihydro-1H-inden-1-yl)-2-(2-hydroxypropan-2-yl)isonicotinamide]: the “CDMF75 IC15” value turned out to be 2.0 µM and the half-inhibitory concentration (IC50) is 8.6 µM.

Turning to `Cn1nccc1C(=O)NC1CCc2cc(-c3noc(C(F)F)n3)ccc21` (stereo not shown) [Compound 35, N-(5-(5-(difluoromethyl)-1,2,4-oxadiazol-3-yl)-2,3-dihydro-1H-inden-1-yl)-1-methyl-1H-pyrazole-5-carboxamide], the “CDMF75 IC15” value amounted to 0.5 µM and the IC50 is 1.6 µM.

On to `CCc1nc(-c2ccc3c(c2)CC[C@H]3NC(=O)c2cc(CO)ccc2F)no1` [Compound 649, (R)-N-(5-(5-ethyl-1,2,4-oxadiazol-3-yl)-2,3-dihydro-1H-inden-1-yl)-2-fluoro-5-(hydroxymethyl)benzamide], for which the “CDMF75 IC15” value was 0.9 µM and the IC50 came to 3.4 µM.
